From ChEMBL document CHEMBL4483862, “Open-source discovery of chemical leads for next-generation chemoprotective antimalarials” (2018) come the findings set out here.

This experiment relates to Plasmodium berghei. Description: Luciferase/luciferin-expressing antifolate-resistant parasites were used to infect a culture of HepG2 cells that were pre-incubated with compounds. Infected hepatocytes emit light due to the luciferase reaction. Assay results are presented as the percent inhibition of light emission compared to control. […]. It counts as functional. The following applies: sporozoite; for IC90: read-out: LUCIFERASE INFECTION ASSAY - IC90.

Where [1] appears, read: read-out: LUCIFERASE INFECTION ASSAY - IC50.

Consider `OC(c1cc(F)c(F)c(F)c1)c1nnc(Nc2ccc(F)c(Cl)c2)s1` (configuration not stated), for which the IC90 was more than 10 µM. Further, the IC50 (FFLUC_HILL_SLOPE 0.27, FFLUC_R_SQUARED 0.307, PBLUC_HILL_SLOPE 3.7, PBLUC_R_SQUARED 0.113, read-out: LUCIFERASE INFECTION ASSAY - IC50) amounted to 8.96 µM.

As for `O=C(NC(=S)NNc1ncc(C(F)(F)F)cc1Cl)c1ccccc1`, the 90% effect concentration (IC90) stood at 0.377 µM. The IC50 (FFLUC_HILL_SLOPE 148, FFLUC_R_SQUARED 0.758, HEPG2TOX_HILL_SLOPE 0.501, HEPG2TOX_R_SQUARED 0.887, PBLUC_HILL_SLOPE 13.6, PBLUC_R_SQUARED 0.819, read-out: LUCIFERASE INFECTION ASSAY - IC50) worked out at 0.321 µM.

With `COc1ccc(-c2csc(NC(=O)c3ccc(Cl)c(S(=O)(=O)N4CCc5ccccc54)c3)n2)cc1OC`, the IC90 was more than 10 µM. Moreover, under “FFLUC_HILL_SLOPE 2.97, FFLUC_R_SQUARED 0.574, read-out: LUCIFERASE INFECTION ASSAY - IC50”, the IC50 was more than 10 µM.

In the case of `OC(CNCc1ccc(F)cc1)(c1ccccc1)c1ccc(F)cc1` (configuration not stated), the IC90 is more than 9.72 µM. The concentration for half-maximal inhibition (IC50) (HEPG2TOX_HILL_SLOPE 7.21, HEPG2TOX_R_SQUARED 0.703, read-out: LUCIFERASE INFECTION ASSAY - IC50) was more than 9.72 µM.

As to `O=C(CN1CCC(n2c(=O)[nH]c3ccccc32)CC1)NCCC1=CCCCC1`, the IC90 was more than 10 µM. Further, under setting [1], the IC50 is more than 10 µM.

Regarding `CCCCNC(=O)c1c(NC(=O)c2ccc(F)c(F)c2)nc2ccc(C)cn12`, the 90% effect concentration (IC90) amounted to 3.54 µM. The IC50 (FFLUC_HILL_SLOPE 0.0723, FFLUC_R_SQUARED 0.0194, HEPG2TOX_HILL_SLOPE 0.765, HEPG2TOX_R_SQUARED 0.862, PBLUC_HILL_SLOPE 1.87, PBLUC_R_SQUARED 0.784, read-out: LUCIFERASE INFECTION ASSAY - IC50) is 1.09 µM.

For the molecule `Cn1ccc2cc(-c3cnc4cnc(-c5ccccc5CO)cn34)ccc21`, the 90% effect concentration (IC90) was found to be 0.0193 µM.

`COc1ccc(CC(=O)NCc2ccccc2Cl)cc1`: the IC90 is more than 11.4 µM. Moreover, the half-maximal inhibitory concentration (IC50) (HEPG2TOX_HILL_SLOPE 3.79, HEPG2TOX_R_SQUARED 0.83, read-out: LUCIFERASE INFECTION ASSAY - IC50) is more than 11.4 µM.

Turning to `CN(CC(=O)Nc1ccccc1N1CCCC1)Cc1ccc2ccccc2c1`, the IC90 was determined as 0.646 µM. Also, the IC50 (HEPG2TOX_HILL_SLOPE 0.547, HEPG2TOX_R_SQUARED 0.872, PBLUC_HILL_SLOPE 2.05, PBLUC_R_SQUARED 0.897, read-out: LUCIFERASE INFECTION ASSAY - IC50) came out at 0.221 µM.

`OCc1ccc(-c2cnc3ccc(-c4ccc(F)cc4)nn23)cc1`: the 90% effect concentration (IC90) was determined as 5.21 µM. For the same molecule, the half-inhibitory concentration (IC50) (HEPG2TOX_HILL_SLOPE 1.97, HEPG2TOX_R_SQUARED 0.914, PBLUC_HILL_SLOPE 1.12, PBLUC_R_SQUARED 0.781, read-out: LUCIFERASE INFECTION ASSAY - IC50) was 0.738 µM.

In the case of `O=[N+]([O-])c1ccc(N2CCN(c3ncccc3C(F)(F)F)CC2)nc1`, the IC90 is more than 9.34 µM. Also, where the note is “HEPG2TOX_HILL_SLOPE 6.77, HEPG2TOX_R_SQUARED 0.465, read-out: LUCIFERASE INFECTION ASSAY - IC50”, the half-inhibitory concentration (IC50) is more than 9.34 µM.

Turning to `CN1CCN(c2ccc(-c3cn4c(-c5ccccc5Cl)cnc4cn3)cn2)CC1`, the IC90 is more than 8.15 µM. Moreover, the half-maximal inhibitory concentration (IC50) (PBLUC_HILL_SLOPE 0.491, PBLUC_R_SQUARED 0.57, read-out: LUCIFERASE INFECTION ASSAY - IC50) was 3.67 µM.

For the molecule `Cc1ccc(-n2nc(C)c(C(=O)Nc3ccccc3N3CCN(C)CC3)n2)c(C)c1`, the IC90 is more than 10 µM. For the same molecule, the half-maximal inhibitory concentration (IC50) (HEPG2TOX_HILL_SLOPE 0.399, HEPG2TOX_R_SQUARED 0.0602, read-out: LUCIFERASE INFECTION ASSAY - IC50) was more than 10 µM.

On to `CC(C)n1ncc2c(C(=O)Nc3ccc(N4CCN(C)CC4)nc3)cc(-c3cccs3)nc21`, for which the 90% effect concentration (IC90) was determined as 8.59 µM. Also, the IC50 (HEPG2TOX_HILL_SLOPE 15.5, HEPG2TOX_R_SQUARED 0.177, PBLUC_HILL_SLOPE 20.4, 20.5, PBLUC_R_SQUARED 0.223, 0.421, read-out: LUCIFERASE INFECTION ASSAY - IC50) was found to be 7.71 µM.

In the case of `O=C(Nc1ccc(F)c(Cl)c1)Nc1csc(Cc2c(Cl)cccc2Cl)n1`, the IC90 is more than 7.66 µM. In addition, for the setting “FFLUC_HILL_SLOPE 16.6, FFLUC_R_SQUARED 0.437, PBLUC_HILL_SLOPE 14.1, PBLUC_R_SQUARED 0.179, read-out: LUCIFERASE INFECTION ASSAY - IC50”, the concentration for half-maximal inhibition (IC50) worked out at 6.61 µM.

As for `CC(C)(C)c1cc(CCC(=O)NNC(=S)NC(=O)c2ccccc2)cc(C(C)(C)C)c1O`, the IC90 was 3.76 µM. Moreover, the half-inhibitory concentration (IC50) (HEPG2TOX_HILL_SLOPE 3.85, HEPG2TOX_R_SQUARED 0.996, PBLUC_HILL_SLOPE 11.4, PBLUC_R_SQUARED 0.664, read-out: LUCIFERASE INFECTION ASSAY - IC50) is 3.1 µM.

Consider `C=CCNC(=S)N1N=C2/C(=C/c3ccc(OCC)cc3)CCCC2C1c1ccc(OCC)cc1` (configuration not stated), for which the IC90 was more than 10 µM. Besides, under “HEPG2TOX_HILL_SLOPE 0.856, HEPG2TOX_R_SQUARED 0.318, PBLUC_HILL_SLOPE 2.55, PBLUC_R_SQUARED 0.497, read-out: LUCIFERASE INFECTION ASSAY - IC50”, the 50% inhibitory concentration (IC50) amounted to 4.45 µM.

Regarding `COc1cc(F)c(S(=O)(=O)N2CCCc3cc(F)cc(F)c32)cc1OC`, the concentration for an effect of 90% (IC90) is more than 10 µM. In addition, for the setting “PBLUC_HILL_SLOPE 2.81, PBLUC_R_SQUARED 0.427, read-out: LUCIFERASE INFECTION ASSAY - IC50”, the IC50 turned out to be 6.52 µM.

Turning to `CN(C)CCNC(=O)c1ccc(-c2cnc3c(Nc4cccc(C(F)(F)F)c4)nccn23)cc1`, the IC90 was more than 7.04 µM. In addition, the IC50 (PBLUC_HILL_SLOPE 63.8, PBLUC_R_SQUARED 0.339, read-out: LUCIFERASE INFECTION ASSAY - IC50) came to 6.95 µM.

`Oc1ccc(Br)cc1/C=N/NC(=S)NC1CC2CCC1C2` (configuration not stated): the 90% effect concentration (IC90) turned out to be 8.93 µM. Further, the 50% inhibitory concentration (IC50) (HEPG2TOX_HILL_SLOPE 9.58, HEPG2TOX_R_SQUARED 0.779, PBLUC_HILL_SLOPE 13.3, PBLUC_R_SQUARED 0.143, read-out: LUCIFERASE INFECTION ASSAY - IC50) was determined as 7.57 µM.

`COc1ccc(-c2cnc3cnc(-c4cccnc4)cn23)cc1`: the 90% effect concentration (IC90) is 4.75 µM. The IC50 (PBLUC_HILL_SLOPE 2.13, PBLUC_R_SQUARED 0.733, read-out: LUCIFERASE INFECTION ASSAY - IC50) was determined as 1.7 µM.

For `COC(=O)c1ccc(CSc2nnc(NC(=O)c3ccccc3[N+](=O)[O-])s2)cc1`, the IC90 is 0.0537 µM. Moreover, where the note is “FFLUC_HILL_SLOPE 3.72, FFLUC_R_SQUARED 0.492, PBLUC_HILL_SLOPE 2.08, PBLUC_R_SQUARED 0.667, read-out: LUCIFERASE INFECTION ASSAY - IC50”, the IC50 worked out at 0.0187 µM.

`O=C(NCC1CC1)Nc1csc(Cc2c(Cl)cccc2Cl)n1`: the concentration for an effect of 90% (IC90) was more than 9.26 µM. Also, the IC50 (PBLUC_HILL_SLOPE 0.58, PBLUC_R_SQUARED 0.694, read-out: LUCIFERASE INFECTION ASSAY - IC50) is more than 9.26 µM.

On to `COc1ccc(-c2csc3ncnc(NCc4ccc(-n5ccnc5)nc4)c23)cc1`, for which the concentration for an effect of 90% (IC90) worked out at 10 µM. Moreover, the IC50 (HEPG2TOX_HILL_SLOPE 2.62, HEPG2TOX_R_SQUARED 0.957, PBLUC_HILL_SLOPE 10.9, PBLUC_R_SQUARED 0.671, read-out: LUCIFERASE INFECTION ASSAY - IC50) was found to be 8.17 µM.

On to `O=C1c2ccccc2NC(c2cc(Br)cs2)N1C1CC1` (configuration not stated), for which the IC90 is more than 10 µM. For the same molecule, the IC50 under setting [1] is more than 10 µM.

Consider `Fc1cccc(-c2nc3ccnc(Nc4cccc(Oc5ccccc5)c4)c3[nH]2)c1`, for which the IC90 was determined as 8.85 µM. In addition, for the setting “HEPG2TOX_HILL_SLOPE 4.02, HEPG2TOX_R_SQUARED 0.911, PBLUC_HILL_SLOPE 2.5, PBLUC_R_SQUARED 0.399, read-out: LUCIFERASE INFECTION ASSAY - IC50”, the IC50 amounted to 3.68 µM.

With `C=CCNC(=S)N1CCc2c([nH]c3ccccc23)C1C(F)(F)F` (configuration not stated), the concentration for an effect of 90% (IC90) is more than 9.72 µM. For the same molecule, the IC50 under setting [1] is more than 9.72 µM.

For `COc1cccc2c1N(S(=O)(=O)c1ccccc1C(F)(F)F)CCC2`, the IC90 was more than 2 µM. Moreover, the IC50 under setting [1] was more than 2 µM.

As to `COc1cc2c(cc1OC)CN(C(=O)c1ccc(OCC(F)(F)F)nc1)CC2`, the IC90 is 7.21 µM. Besides, the IC50 (HEPG2TOX_HILL_SLOPE 0.758, HEPG2TOX_R_SQUARED 0.894, PBLUC_HILL_SLOPE 2.65, PBLUC_R_SQUARED 0.321, read-out: LUCIFERASE INFECTION ASSAY - IC50) came to 3.14 µM.

With `C=CCn1c(SCc2c(C(=O)OCC)sc(N)c2C#N)nnc1-c1ccc(Cl)cc1Cl`, the 90% effect concentration (IC90) is more than 10 µM. Also, the IC50 under setting [1] is more than 10 µM.

Regarding `Cc1cc2c(cc1C)C(NC(C)c1ccccc1)=NC(C)(C)C2` (configuration not stated), the concentration for an effect of 90% (IC90) worked out at 4.29 µM. Moreover, the IC50 (PBLUC_HILL_SLOPE 13.3, PBLUC_R_SQUARED 0.718, read-out: LUCIFERASE INFECTION ASSAY - IC50) is 3.64 µM.

For `Clc1ccc2c(NCc3ccc(-n4cccn4)nc3)ncnc2c1`, the IC90 was more than 10 µM. Also, the IC50 (PBLUC_HILL_SLOPE 1.57, PBLUC_R_SQUARED 0.509, read-out: LUCIFERASE INFECTION ASSAY - IC50) is 3.37 µM.

As to `O=C1Nc2ccccc2/C1=C/c1ccccc1N1CCOCC1`, the IC90 is more than 10.8 µM. Besides, the IC50 (HEPG2TOX_HILL_SLOPE 1.93, HEPG2TOX_R_SQUARED 0.799, PBLUC_HILL_SLOPE 2.49, PBLUC_R_SQUARED 0.295, read-out: LUCIFERASE INFECTION ASSAY - IC50) came to 5.94 µM.

In the case of `C=CCc1ccccc1OCC(O)CN1CCN(c2ccccc2OC)CC1` (configuration not stated), the IC90 was more than 7.88 µM. For the same molecule, under setting [1], the IC50 was more than 7.88 µM.

One may read the IC50 as the concentration needed to halve the response being measured. In general, IC90 refers to the concentration at which the effect reaches the 90% level.
